# Reference: US20190358220A1, “INTEGRATOR INHIBITORS AND METHODS FOR THEIR USE” (UNIVERSITY OF MIAMI, priority 2017, published 2019)
# Test system: Integrator and RNAPII recruitment to EGF-responsive IEGs
# Experiment: ChIP-seq of INTS11 and RNAPII recruitment after EGF stimulation
# Format: cell-based, human
# Protocol: Diagrams of EGR1, FOSB and NR4A1 genomic regions are indicated at the bottom. FIGS. 5B and 5C show the average profiles of INTS11 (top) and RNAPII (bottom) recruitment at 106 EGF-induced genes (FIG. 5B) and 106 control genes (FIG. 5C). ChIP-seq was performed before and after 20 minutes of EGF-induction, with or without the presence of ERK inhibitor. The average analysis was performed using two independent biological replicates.
# ChIP-seq for INTS11 and RNAPII was performed before and after treatment of cells with ERK1/2 inhibitor (SCH772984). […] This was manifested by decreased occupancy of Integrator and RNAPII at the 5′-end and body of EGF-responsive genes (FIGS. 5A-5C). […]
# ChIP-seq data analysis was performed as previously described. […] In brief, FASTQ data were processed with Trimmomatic to remove low-quality reads and then aligned to the human genome hg19 using bowtie2. […] In brief, RNAPII ChIP-seq density at the TSS (−30 bp to +300 bp) was divided by the read density over the rest of the gene body, plus an additional 1 kb beyond the transcription end site (TES). The log10(ratio) of genes (EGF, control and ERK inhibitor treatment) were calculated using all different isoforms available in the Hg19 RefSeq Annotation Table that were considered express (FPKM >1 in EGF treatment conditions) in our analysis.
smiles,measurement,setting,value
O=C(Nc1ccc2[nH]nc(-c3ccncc3)c2c1)[C@@H]1CCN(CC(=O)N2CCN(c3ccc(-c4ncccn4)cc3)CC2)C1 [SCH772984],recruitment of Integrator and RNAPII to EGF-responsive IEGs,before and after 20 minutes of EGF induction,diminished the immediate-early recruitment of Integrator and RNAPII
same,transcriptional elongation (RNAPII traveling ratio),following EGF induction,substantially decreased transcriptional elongation
